Reference: patent US5091390A, “Treatment of CNS disorders with 4,5,6,7-tetrahydro-1H-imidazo (4,5-)-pyridines and analogs” (E. I. du Pont de Nemours and Company, priority 1990, dated 1992)
“And” between values parts separate entries of the source, which are not always exact repeats. Equal entries are not always repeated. “Also recorded” adds a separate entry of the source. Where two headings read alike, the source gives them in different places.

Key:
AII receptor subtype B = conditions: cited from earlier work
AII receptor subtype A = conditions: cited from earlier work
AII-1 receptor [1] = assay: DTT inactivation of the AII-1 receptor; assay type: binding, rat
From the text: (§1) 102: 685-696, except the above binding assay conditions were used.

AII-2 receptor [2] = target: T1, AII-2 receptor (Rattus norvegicus, UniProt P35351); assay: DTT inactivation of the AII-2 receptor; assay type: binding; set-up: AII-1 and AII-2 receptor subtypes in rat adrenal cortex microsomes; from tissue; host or cells: rat adrenal cortex (microsomes)
T1 sequence (P35351 1-363): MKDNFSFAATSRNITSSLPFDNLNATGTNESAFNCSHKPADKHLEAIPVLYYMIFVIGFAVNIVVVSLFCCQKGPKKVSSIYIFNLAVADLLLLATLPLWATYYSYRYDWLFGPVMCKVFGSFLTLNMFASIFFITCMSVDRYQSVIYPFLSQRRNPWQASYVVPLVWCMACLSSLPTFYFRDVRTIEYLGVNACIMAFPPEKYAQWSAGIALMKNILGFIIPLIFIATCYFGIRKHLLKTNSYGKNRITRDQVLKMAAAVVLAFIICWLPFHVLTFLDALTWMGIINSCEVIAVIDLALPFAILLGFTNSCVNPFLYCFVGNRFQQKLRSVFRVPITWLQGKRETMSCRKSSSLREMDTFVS
From the text: as §1

[3] = tested on: AII receptors (rat adrenal cortical membranes); assay: AII binding to rat adrenal cortical membranes with and without DTT pretreatment; conditions: for effect of DTT on the inhibition of AII binding: 5 mM DTT, DuP 753 at 3×10^-9 to 3×10^-6 M
From the text: as §1

[4] = tested on: AII receptors (rat adrenal cortical microsomes); assay: [125I]AII total specific binding, rat adrenal cortex / cortical microsomes
Experimental: (§2) The same procedures and conditions were used for adrenal medullary microsomes. […] After 60 min of incubation, the reaction was terminated by addition of cold assay buffer. The bound and free radioactivity were rapidly separated through glass-fiber filters, and the trapped radioactivity was determined by gamma counting.

AII-1 receptor [5] = assay: [125I]AII radioligand binding, rat adrenal cortical microsomes, AII-1 (DuP 753-sensitive) sites; conditions: for preference for one AII receptor subtype: AII-1 vs. AII-2
Experimental: as §2

[6] = tested on: AII receptors (rat adrenal medullary microsomes); assay: [125I]AII specific binding, rat adrenal medulla / medullary microsomes; conditions: below 1×10^-5 M; rat adrenal medullary microsomes
Experimental: as §2

[7] = target: T2, AII receptors (rat adrenal medullary microsomes) (Rattus norvegicus, UniProt P35351); assay: as above
T2 construct: from tissue; host or cells: rat adrenal medulla, microsomes
T2 sequence (P35351 1-363): T1 sequence (P35351 1-363)
Experimental: as §2

[8] = tested on: AII receptors (rat adrenal gland); conditions: DuP 753 10^-5 M, XB-655 10^-6 M
Experimental: Fresh tissue was frozen on powdered dry ice and stored at -70° C. until used. Sections were cut at 15 microns and thaw mounted onto gelatin subbed slides. […] Slides were placed under X-ray film (Kodak XAR-5) and exposed for 11/2 days before processing the film to produce the film autoradiograms. The slides were then fixed with paraformaldehyde vapor at 80° C. for two hours, dried under air, delipidated, and dipped in emulsion (Kodak NTB-2). The coated slides were exposed for 4-5 weeks, developed with Kodak D-19 and counter-stained with hemotoxylin-eosin to view the histology.

AII-2 receptor [9] = target: T1, AII-2 receptor; assay: [125I]AII radioligand binding, rat adrenal cortical microsomes, AII-2 (DuP 753-insensitive) sites; conditions: for selective binding to AII-2 receptors: AII-2 vs. AII-1
Experimental: as §2

[10] = tested on: memory of previously learned tasks; conditions: in vivo; cited from earlier work
avoidance learning = conditions: renin IVT, cited from earlier work; for avoidance learning: captopril IVT prior to the renin injection
PA task = assay: renin-induced amnesia in a PA task (applicants); assay type: in vivo; conditions: IVT
[11] = tested on: light/dark habituation performance; conditions: cited from earlier work
[12] = tested on: retention of a passive avoidance (PA) response; conditions: injected into the dorsal neostriatum, rats; cited from earlier work
[13] = tested on: potassium stimulated release of [^3 H]ACh; conditions: entorhinal cortex of rat brain; cited from earlier work
[14] = in the presence of 10^-5 M XB-655, rat adrenal cortex microsomes, read-out: IC50 AII-1

## O[C@H](CS)[C@H](O)CS (racemic) [DTT, dithiothreitol]
AII receptor subtype B
  effect of DTT on binding to subtype B: inhibit binding to subtype B
AII receptor subtype A
  effect of DTT on binding to subtype A: enhance binding to subtype A
AII-1 receptor [1]
  inactivation of AII-1 receptor by DTT: particularly sensitive to inactivation; also recorded: inactivated by DTT
AII-2 receptor [2]
  inactivation of AII-2 receptor by DTT: resistant to DTT inactivation

## CCCCc1nc(Cl)c(CO)n1Cc1ccc(-c2ccccc2-c2nn[nH]n2)cc1 [DuP 753]
[3]
  effect of DTT on the inhibition of AII binding: essentially abolished
[4]
  inhibition of the total AII binding: 80%
AII-1 receptor [5]; [14]
  IC50: 12 nM
[6]
  inhibition of binding below 1×10^-5 M: 10%
[7]; rat adrenal medulla
  inhibition of AII binding (in words): essentially inactive
[8]
  labeling of adrenal cortex by [125I]AII: significantly reduced
  labeling of adrenal medulla by [125I]AII: not appreciably affected

## COC(=O)C1Cc2c(ncn2Cc2ccc(NC(=O)c3ccccc3C(=O)O)c(C)c2)CN1C(=O)C(c1ccccc1)c1ccccc1 (centres unmarked) [Example 2, Methyl-1-[4-amido-(2'-carboxyphenyl)-3-methylphenyl]methyl-5-diphenylacetyl-4,5,6,7-tetrahydro-1H-imidazo (4,5-C)-pyridine-6-carboxylate]
AII-2 receptor [9]
  selective binding to AII-2 receptors: bind selectively to AII-2 receptors
AII-1 receptor [5]; [14]
  IC50: 12000 nM

## O=C(O)C1Cc2c(ncn2Cc2ccc(-c3ccccc3-c3nnn[nH]3)cc2)CN1C(=O)C(c1ccccc1)c1ccccc1 (centres unmarked) [Example 27]
AII-2 receptor [9]
  selective binding to AII-2 receptors: bind selectively to AII-2 receptors
AII-1 receptor [5]; [14]
  IC50: 300000 nM

## NCCCC[C@H](OP(=O)(O)CCCCc1ccccc1)C(=O)N1CCC[C@H]1C(=O)O [SQ 29852]
[10]
  anticholinergic effect on performance: ameliorate, at least in part
  memory of previously learned tasks: protective effects on memory

## CNCC(=O)N[C@@H](CCCN=C(N)N)C(=O)N[C@H](C(=O)N[C@@H](Cc1ccc(O)cc1)C(=O)N[C@H](C(=O)N[C@@H](Cc1cnc[nH]1)C(=O)N1CCC[C@H]1C(=O)N[C@@H](C)C(=O)O)C(C)C)C(C)C [Saralasin]
[3]
  effect of DTT on the inhibition of AII binding: not significantly altered
AII-2 receptor [9]; IC50 AII-2, in the presence of 10^-5 M DuP 753, rat adrenal cortex microsomes
  IC50: ~1.3 nM and 1.3 nM
AII-1 receptor [5]
  preference for one AII receptor subtype: no preference
AII-1 receptor [5]; [14]
  IC50: 1.7 nM
AII-1 receptor [5]; read-out: IC50, DuP 753-sensitive site, in the presence of 10^-5 M XB-655, unit inferred
  IC50: ~1.7 nM
[7]; rat adrenal medulla / medullary microsomes
  IC50: 0.4 nM

## C[C@H](CS)C(=O)N1CCC[C@H]1C(=O)O [captopril]
Avoidance learning
  avoidance learning: prevented the renin-induced avoidance disruption
PA task
  amnesia in a PA task: prevented
[11]; daily treatment
  anticholinergic scopolamine-induced disruption of performance: prevented
[11]; subchronic treatment
  rate of acquisition of light/dark habituation performance: increased the rate of acquisition

## NC(=O)[C@@H]1CCCN1C(=O)[C@H](Cc1cnc[nH]1)NC(=O)[C@@H]1CCC(=O)N1 [thyrotropin releasing hormone]
[12]
  retention of a PA response: no effect

## Angiotensin II (DRVYIHPF; Angiotensin-2; UniProt P01019 25-32, looked up) [AII]
[3]; presence vs. absence of DTT
  enhancement of inhibitory potency by DTT: 2.5 fold
[3]; read-out: IC50 in the absence of DTT, absence of DTT
  IC50: 1 nM
[13]
  basal levels of ACh release: without effects on basal levels
  potassium-stimulated release of ACh: reduced potassium-stimulated release of ACh
[12]
  retention of a PA response: disruption in retention of a PA response
AII-1 receptor [5]
  preference for one AII receptor subtype: no preference
[8]
  labeling of adrenal cortex by [125I]AII: potently inhibited the labeling
  labeling of adrenal medulla by [125I]AII: potently inhibited the labeling

## [1-sarcosine, 8-threonine]angiotensin II
[13]
  antagonism of the AII effect on ACh release: antagonized

## lysine-8-vasopressin
[12]
  retention of a PA response: no effect

B1: renin: an enzyme involved in endogenous AII biosynthesis (protein, UniProt P00797 67-406, looked up)
Renin: LTLGNTTSSVILTNYMDTQYYGEIGIGTPPQTFKVVFDTGSSNVWVPSSKCSRLYTACVYHKLFDASDSSSYKHNGTELTLRYSTGTVSGFLSQDIITVGGITVTQMFGEVTEMPALPFMLAEFDGVVGMGFIEQAIGRVTPIFDNIISQGVLKEDVFSFYYNRDSENSQSLGGQIVLGGSDPQHYEGNFHYINLIKTGVWQIQMKGVSVGSSTLLCEDGCLALVDTGASYISGSTSSIEKLMEALGAKKRLFDYVVKCNEGPTLPDISFHLGGKEYTLTSADYVFQESYSSKKLCTLAIHAMDIPPPTGPTWALGATFIRKFYTEFDRRNNRIGFALAR
Avoidance learning
  avoidance learning: disruption of avoidance learning
Avoidance learning; increase from 40
  AII level in cerebrospinal fluid (CSF): about 5000 fmol per mL
PA task
  amnesia in a PA task: dose-related amnesia
